Key:
Assay in all cases: CFTR current in FRT cells expressing G551D CFTR, […] compound with VX-770
Assay type in all cases: cell-based
[1] = target: T1, cystic fibrosis transmembrane conductance regulator (CFTR) (Homo sapiens, UniProt P13569, G551D)
[2] = target: T1, cystic fibrosis transmembrane conductance regulator (CFTR); remark: listed apart in the source
[3] = target: T1, cystic fibrosis transmembrane conductance regulator (CFTR); remark: listed apart in the source

T1 sequence (P13569 whole entry G551D): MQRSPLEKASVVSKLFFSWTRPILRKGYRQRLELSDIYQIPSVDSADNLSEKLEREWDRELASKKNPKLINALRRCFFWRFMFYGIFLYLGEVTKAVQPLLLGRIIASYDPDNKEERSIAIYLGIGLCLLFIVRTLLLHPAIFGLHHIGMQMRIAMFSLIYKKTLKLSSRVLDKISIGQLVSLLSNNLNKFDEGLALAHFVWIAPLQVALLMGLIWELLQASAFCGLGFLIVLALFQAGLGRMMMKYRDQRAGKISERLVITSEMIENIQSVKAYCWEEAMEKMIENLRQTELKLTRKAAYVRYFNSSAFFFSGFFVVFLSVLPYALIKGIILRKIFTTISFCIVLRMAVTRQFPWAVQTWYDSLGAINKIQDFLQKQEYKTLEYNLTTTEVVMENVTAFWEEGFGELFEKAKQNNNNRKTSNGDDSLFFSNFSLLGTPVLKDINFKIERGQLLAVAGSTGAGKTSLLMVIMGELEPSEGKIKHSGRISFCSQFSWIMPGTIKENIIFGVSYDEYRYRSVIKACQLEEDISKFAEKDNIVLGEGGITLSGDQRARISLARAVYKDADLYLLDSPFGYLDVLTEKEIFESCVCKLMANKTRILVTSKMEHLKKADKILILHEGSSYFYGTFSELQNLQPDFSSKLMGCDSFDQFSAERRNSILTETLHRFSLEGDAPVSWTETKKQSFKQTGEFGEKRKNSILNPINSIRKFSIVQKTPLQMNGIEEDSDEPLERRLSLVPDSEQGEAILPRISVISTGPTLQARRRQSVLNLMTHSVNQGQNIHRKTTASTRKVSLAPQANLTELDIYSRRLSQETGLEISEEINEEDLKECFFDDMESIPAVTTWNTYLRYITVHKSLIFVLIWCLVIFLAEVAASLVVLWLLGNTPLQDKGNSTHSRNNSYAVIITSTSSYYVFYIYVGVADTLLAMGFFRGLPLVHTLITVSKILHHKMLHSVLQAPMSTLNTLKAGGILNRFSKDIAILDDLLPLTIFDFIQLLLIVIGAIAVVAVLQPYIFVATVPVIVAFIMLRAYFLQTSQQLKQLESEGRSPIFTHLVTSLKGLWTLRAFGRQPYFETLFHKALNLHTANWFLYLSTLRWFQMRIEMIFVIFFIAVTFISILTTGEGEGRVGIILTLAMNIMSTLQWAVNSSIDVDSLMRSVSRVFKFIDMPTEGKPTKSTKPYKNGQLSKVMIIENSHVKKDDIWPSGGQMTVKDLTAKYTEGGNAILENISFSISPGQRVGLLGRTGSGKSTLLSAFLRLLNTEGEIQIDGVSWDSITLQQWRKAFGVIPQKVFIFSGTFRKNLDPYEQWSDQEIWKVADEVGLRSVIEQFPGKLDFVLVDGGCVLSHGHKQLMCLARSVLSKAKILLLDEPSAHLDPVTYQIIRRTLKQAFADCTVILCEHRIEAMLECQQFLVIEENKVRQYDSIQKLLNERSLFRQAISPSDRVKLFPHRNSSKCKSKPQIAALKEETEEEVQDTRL

CC(C)(C)C1=Nn2c(nnc2-c2ccc(Cl)cc2Cl)SC1 [8d]
% gain above VX-770 alone [1]: ~ 400 % gain above VX-770 alone

CC(C)C1=Nn2c(nnc2-c2cc(Cl)ccc2Br)SC1 [9c]
CFTR current in FRT cells expressing G551D CFTR, 10 μM compound with VX-770 [2]: 2-bromo-5-chloro series with 9c and 9d showing the highest levels of activity

COc1ccc(Br)c(-c2nnc3n2N=C(C(C)C)CS3)c1 [10a]
% G551D CFTR stimulation compared to VX-770 alone [3]: 232 % G551D CFTR stimulation compared to VX-770 alone

Source: paper PMC10577695, “A Novel 7H-[1,2,4]Triazolo[3,4-b]thiadiazine-based Cystic Fibrosis Transmembrane Conductance Regulator Potentiator Directed toward Treatment of Cystic Fibrosis” (ACS Medicinal Chemistry Letters, 2023)
